In ChEMBL document CHEMBL5053510, “Discovery of AS-1763: A Potent, Selective, Noncovalent, and Orally Available Inhibitor of Bruton's Tyrosine Kinase” (J Med Chem, 2021):

Target: Tyrosine-protein kinase BTK (Homo sapiens, UniProt Q06187)
Assay: Inhibition of human BTK-A using phosphorylated substrate in presence of ATP by microplate reader assay

Tyrosine-protein kinase BTK, sequence (Q06187 whole entry): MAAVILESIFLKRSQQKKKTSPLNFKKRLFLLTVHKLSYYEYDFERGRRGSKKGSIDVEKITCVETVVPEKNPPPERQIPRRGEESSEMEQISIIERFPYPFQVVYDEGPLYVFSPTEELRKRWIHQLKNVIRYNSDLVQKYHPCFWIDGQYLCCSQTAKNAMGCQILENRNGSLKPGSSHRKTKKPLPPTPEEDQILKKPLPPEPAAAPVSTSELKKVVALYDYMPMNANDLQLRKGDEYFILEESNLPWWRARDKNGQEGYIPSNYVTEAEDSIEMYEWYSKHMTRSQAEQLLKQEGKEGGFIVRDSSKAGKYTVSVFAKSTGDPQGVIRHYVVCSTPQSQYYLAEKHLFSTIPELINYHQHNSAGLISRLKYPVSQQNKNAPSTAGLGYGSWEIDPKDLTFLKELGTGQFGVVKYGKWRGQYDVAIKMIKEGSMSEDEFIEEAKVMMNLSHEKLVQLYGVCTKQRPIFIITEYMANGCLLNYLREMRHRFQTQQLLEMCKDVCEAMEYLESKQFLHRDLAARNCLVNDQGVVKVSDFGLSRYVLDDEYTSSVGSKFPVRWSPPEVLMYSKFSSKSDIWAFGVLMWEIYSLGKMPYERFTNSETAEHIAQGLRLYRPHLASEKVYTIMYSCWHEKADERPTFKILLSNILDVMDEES

Structure (SMILES): Nc1nc(-c2cccc(-n3ccc4cc(C5CC5)cc(F)c4c3=O)c2CO)c2cc(C3=CCNCC3)[nH]c2n1
- IC50: 0.65 nM

Structure (SMILES): CN1CCN(C(=O)N2CC=C(c3cc4c(-c5cccc(-n6ccc7cc(C8CC8)cc(F)c7c6=O)c5CO)nc(N)nc4[nH]3)CC2)CC1
- IC50: 0.65 nM

Structure (SMILES): CC(=O)N1CC=C(c2cc3c(-c4cccc(-n5ccc6cc(C7CC7)cc(F)c6c5=O)c4CO)nc(N)nc3[nH]2)CC1
- IC50: 0.71 nM

Structure (SMILES): Nc1nc(-c2cccc(-n3ccc4cc(C5CC5)cc(F)c4c3=O)c2CO)c2cc(-c3ccccc3)[nH]c2n1
- IC50: 14 nM

Structure (SMILES): Cc1cc2c(-c3cccc(-n4ccc5cc(C6CC6)cc(F)c5c4=O)c3CO)nc(N)nc2[nH]1
- IC50: 49 nM

Structure (SMILES): Nc1nc(-c2cccc(-n3ccc4cc(C5CC5)cc(F)c4c3=O)c2CO)c2cc(C3=CCCCC3)[nH]c2n1
- IC50: 2.6 nM
